# According to patent publication US9079866B2, “Flap modulators” (JANSSEN PHARMACEUTICA NV, priority 2013, dated 2015):
# Counter-ions that a name gives are not always drawn. Like-named read-outs stand apart in the source and are kept apart here.
# Experiments:
# human FLAP = human FLAP (Homo sapiens (Human), UniProt P20292); test: FLAP binding assay (HTRF format)
# Outline: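 Samples were run in duplicate on each of two plates and the plate results averaged. Read-out is the HTRF signal ratio.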
# [1] = tested on: leukotriene pathway in human whole blood (LTB4 levels); test: Human whole blood assay (A23187-stimulated LTB4); type: cell-based; settings: Homo sapiens, read-out: LTB4 IC50 1:1
# Outline: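 Heparinised human whole blood diluted 1:1 in RPMI, pre-incubated 15 min at 37° Celsius with compound, then stimulated with A23187 (7 μg/mL) for 30 min at 37° Celsius. Plasma LTB4 measured by immunoassay kit; IC50 from 4-parameter fit; single replicate per plate, at least one healthy donor.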
# [2] = read-out: FLAP Binding wild type HTRF Ki
# [3] = human whole blood diluted 1:1 in RPMI, A23187-stimulated LTB4
# [4] = human FLAP wild type, HTRF format, average of two plates, duplicates
# [5] = human whole blood diluted 1:1, A23187-stimulated
# human FLAP, sequence (P20292 whole entry): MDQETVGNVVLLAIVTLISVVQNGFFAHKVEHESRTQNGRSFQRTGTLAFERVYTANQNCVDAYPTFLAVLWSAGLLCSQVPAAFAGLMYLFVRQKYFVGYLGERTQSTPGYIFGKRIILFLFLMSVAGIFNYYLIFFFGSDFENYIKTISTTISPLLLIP
SMILES,"IC50 [1, 3] [nM]",Ki (human FLAP; [4]) [nM],"Ki (human FLAP; wild type FLAP, HTRF format) [nM]","IC50 [1, 5] [nM]",Ki (human FLAP; [2]) [nM]
"Nc1ccnc(Sc2ccccc2-c2ccc(-c3cnc(N)nc3)c(F)c2)n1 [Example 330, 5-{2′-[(4-Aminopyrimidin-2-yl)sulfanyl]-3-fluorobiphenyl-4-yl}pyrimidin-2-amine formate salt]",88,,,,12
"Nc1ncc(-c2ccc(-c3ccccc3S(=O)(=O)N3CCS(=O)(=O)CC3)cc2F)cn1 [Example 264, 5-{2′-[(1,1-Dioxidothiomorpholin-4-yl)sulfonyl]-3-fluorobiphenyl-4-yl}pyrimidin-2-amine trifluoroacetic salt]",144,28,,,
"NC(=O)C1CCN1S(=O)(=O)c1ccccc1-c1ccc(-c2cnc(N)cn2)c(F)c1 (racemic) [Example 139, Racemic 1-{[4′-(5-Aminopyrazin-2-yl)-3′-fluorobiphenyl-2-yl]sulfonyl}azetidine-2-carboxamide]",341,133,,,
"Nc1cnc(-c2ccc(-c3ccccc3S(=O)(=O)N[C@H]3CCNC3=O)cc2F)cn1 [Example 107, (S)-4′-(5-Aminopyrazin-2-yl)-3′-fluoro-N-(2-oxopyrrolidin-3-yl)-[1,1′-biphenyl]-2-sulfonamide]",132,16,,,
"Nc1cnc(-c2ccc(-c3ccccc3S(=O)(=O)N[C@H]3CCCC[C@@H]3O)cc2F)cn1 [Example 162, 4′-(5-Aminopyrazin-2-yl)-3′-fluoro-N-((1S,2S)-2-hydroxycyclohexyl)-[1,1′-biphenyl]-2-sulfonamide]",122,5,,,
"Cc1nc(-c2ccc(-c3ccccc3S(=O)(=O)NC(C)(C)C)cc2F)cnc1N [Example 445, 4′-(5-Amino-6-methylpyrazin-2-yl)-N-tert-butyl-3′-fluorobiphenyl-2-sulfonamide]",,,1,8,
"Nc1ncc(-c2ccc(-c3ccc(C(F)(F)F)cc3Oc3ccnc(N)n3)cc2F)cn1 [Example 560, 4-{[4′-(2-Aminopyrimidin-5-yl)-3′-fluoro-4-(trifluoromethyl)biphenyl-2-yl]oxy}pyrimidin-2-amine]",,,5,95,
"Nc1cnc(-c2ccc(-c3ccc(C(F)(F)F)cc3CN3CCC(N)CC3)cc2F)cn1 [Example 606, 5-{2′-[(4-Aminopiperidin-1-yl)methyl]-3-fluoro-4′-(trifluoromethyl)biphenyl-4-yl}pyrazin-2-amine]",,,46.3,2620,
"Nc1cnc(-c2ccc(-c3ccccc3S(=O)(=O)N[C@H]3CCNC3)cc2F)cn1 [Example 154, (S)-4′-(5-Aminopyrazin-2-yl)-3′-fluoro-N-(pyrrolidin-3-yl)-[1,1′-biphenyl]-2-sulfonamide]",1040,29,,,
"Nc1cnc(-c2ccc(-c3ccccc3S(=O)(=O)N3CCNC[C@@H]3CO)cc2F)cn1 [Example 146, (R)-(1-((4′-(5-Aminopyrazin-2-yl)-3′-fluoro-[1,1′-biphenyl]-2-yl)sulfonyl)piperazin-2-yl)methanol]",168,19,,,
"COc1c(-c2ccc(C(F)(F)F)cc2)ccc(-c2cnc(N)cn2)c1F [Example 698, 5-(3-fluoro-2-methoxy-4′-(trifluoromethyl)-[1,1′-biphenyl]-4-yl)pyrazin-2-amine]",,,8.7,112,
"CC(C)(CO)CNS(=O)(=O)c1ccccc1-c1ccc(-c2ncc(N)nc2C#N)c(F)c1 [Example 714, 4′-(5-Amino-3-cyanopyrazin-2-yl)-3′-fluoro-N-(3-hydroxy-2,2-dimethylpropyl)biphenyl-2-sulfonamide]",,,2.4,33.1,
"CC(C)(C)Sc1ccccc1-c1ccc(-c2cnc(N)cn2)c(F)c1 [Example 190, 5-[2′-(tert-Butylsulfanyl)-3-fluorobiphenyl-4-yl]pyrazin-2-amine]",471,58,,,
"Nc1cnc(-c2ccc(-c3ccccc3CSc3ccncn3)cc2F)cn1 [Example 243, 5-(3-Fluoro-2′-((pyrimidin-4-ylthio)methyl)-[1,1′-biphenyl]-4-yl)pyrazin-2-amine hydrochloride]",120,3,,,
"CC(C)Oc1ncccc1-c1ccc(-c2cnc(N)nc2)c(F)c1 [Example 408, 5-{2-Fluoro-4-[2-(1-methylethoxy)pyridin-3-yl]phenyl}pyrimidin-2-amine]",,,128,1140,
"Nc1ncc(-c2ccc(-c3ccccc3S(=O)(=O)C3CC3)cc2F)cn1 [Example 254, 5-[2′-(Cyclopropylsulfonyl)-3-fluorobiphenyl-4-yl]pyrimidin-2-amine]",586,80,,,
"CS(=O)(=O)c1cc(C(F)(F)F)ccc1-c1ccc(-c2cnc(N)cn2)c(F)c1 [Example 207, 5-[3-Fluoro-2′-(methylsulfonyl)-4′-(trifluoromethyl)biphenyl-4-yl]pyrazin-2-amine]",205,17,,,
"Nc1ncc(-c2ccc(-c3ccccc3S(=O)(=O)N[C@H]3CCNC3=O)cc2F)cn1 [Example 263, 4′-(2-Aminopyrimidin-5-yl)-3′-fluoro-N-[(3S)-2-oxopyrrolidin-3-yl]biphenyl-2-sulfonamide]",207,169,,,
"N#Cc1cccc(COc2ccccc2-c2ccc(-c3cnc(N)cn3)c(F)c2)n1 [Example 530, 6-({[4′-(5-Aminopyrazin-2-yl)-3′-fluorobiphenyl-2-yl]oxy}methyl)pyridine-2-carbonitrile]",,,34,1110,
"Nc1cnc(-c2ccc(-c3ccccc3Sc3cnccn3)cc2F)cn1 [Example 218, 5-[3-Fluoro-2′-(pyrazin-2-ylsulfanyl)biphenyl-4-yl]pyrazin-2-amine hydrochloride]",29,,,,3
"CS(=O)(=O)c1ccccc1-c1ccc(-c2cnc3c(c2)OCCN3)c(F)c1 [Example 385, 7-[3-Fluoro-2′-(methylsulfonyl)biphenyl-4-yl]-3,4-dihydro-2H-pyrido[3,2-b][1,4]oxazine]",1080,42,,,
"O=C1NCC[C@@H]1NS(=O)(=O)c1ccccc1-c1ccc(-c2cnc3[nH]ccc3c2)c(F)c1 [Example 364, 3′-Fluoro-N-[(3S)-2-oxopyrrolidin-3-yl]-4′-(1H-pyrrolo[2,3-b]pyridin-5-yl)biphenyl-2-sulfonamide]",150,3,,,
"Nc1cnc(-c2ccc(-c3ccccc3S(=O)(=O)N[C@H](CO)c3ccccc3)cc2F)cn1 [Example 81, 4′-(5-Aminopyrazin-2-yl)-3′-fluoro-N-[(1S)-2-hydroxy-1-phenylethyl]biphenyl-2-sulfonamide]",152,6,,,

# The remaining compounds from weak to strong by IC50 [1, 3], led by results:
"IC50 [1, 3] [nM]",Ki (human FLAP; [4]) [nM],"Ki (human FLAP; wild type FLAP, HTRF format) [nM]","IC50 [1, 5] [nM]",SMILES,Ki (human FLAP; [2]) [nM]
75,8,,,"CCCCCCS(=O)(=O)Nc1ccccc1-c1ccc(-c2cnc(N)cn2)c(F)c1 [Example 39, N-[4′-(5-Aminopyrazin-2-yl)-3′-fluorobiphenyl-2-yl]hexane-1-sulfonamide]",
57,4,,,"CCN(CC)S(=O)(=O)c1ccccc1-c1ccc(-c2ccc(N)nc2)c(F)c1 [Example 343, 4′-(6-Aminopyridin-3-yl)-N,N-diethyl-3′-fluoro-[1,1′-biphenyl]-2-sulfonamide]",
46,18,,,"Nc1ncc(-c2ccc(-c3ccccc3S(=O)(=O)N[C@H]3CC[C@H](O)CC3)cc2F)cn1 [Example 262, 4′-(2-Aminopyrimidin-5-yl)-3′-fluoro-N-(trans-4-hydroxycyclohexyl)biphenyl-2-sulfonamide]",
37,2,,,"Nc1cnc(-c2ccc(-c3ccccc3S(=O)(=O)N3CCC(O)(c4ccccc4)C3)cc2F)cn1 (racemic) [Example 180, racemic 1-{[4′-(5-Aminopyrazin-2-yl)-3′-fluorobiphenyl-2-yl]sulfonyl}-3-phenylpyrrolidin-3-ol]",
36,7,,,"Nc1cnc(-c2ccc(-c3ccccc3S(=O)(=O)NCCO)cc2F)cn1 [Example 88, 4′-(5-Aminopyrazin-2-yl)-3′-fluoro-N-(2-hydroxyethyl)biphenyl-2-sulfonamide]",
33,1,,,"CNS(=O)(=O)c1ccccc1-c1ccc(-c2cnc3[nH]ccc3n2)c(F)c1 [Example 379, 3′-Fluoro-N-methyl-4′-(5H-pyrrolo[2,3-b]pyrazin-2-yl)biphenyl-2-sulfonamide]",
26,5,,,"Nc1ccc(-c2ccc(-c3ccccc3S(=O)(=O)N3CCC(CO)CC3)cc2F)cn1 [Example 361, (1-((4′-(6-Aminopyridin-3-yl)-3′-fluoro-[1,1′-biphenyl]-2-yl)sulfonyl)piperidin-4-yl)methanol]",
24,1,,,"CC(C)(CO)NS(=O)(=O)c1ccccc1-c1ccc(-c2cnc(N)cn2)c(F)c1 [Example 100, 4′-(5-Aminopyrazin-2-yl)-3′-fluoro-N-(2-hydroxy-1,1-dimethylethyl)biphenyl-2-sulfonamide]",
21,17,,,"C[C@@H]1CNCCN1S(=O)(=O)c1ccccc1-c1ccc(-c2cnc(N)cn2)c(F)c1 [Example 145, (R)-5-(3-Fluoro-2′-((2-methylpiperazin-1-yl)sulfonyl)-[1,1′-biphenyl]-4-yl)pyrazin-2-amine]",
14,2,,,"CC(C)(O)CNS(=O)(=O)c1ccccc1-c1ccc(-c2cnc(N)cn2)c(F)c1 [Example 101, 4′-(5-Aminopyrazin-2-yl)-3′-fluoro-N-(2-hydroxy-2-methylpropyl)biphenyl-2-sulfonamide]",
11,1,,,"O=S(=O)(c1ccccc1-c1ccc(-c2cnc3[nH]ccc3n2)c(F)c1)N1CCCCC1 [Example 374, 2-[3-Fluoro-2′-(piperidin-1-ylsulfonyl)biphenyl-4-yl]-5H-pyrrolo[2,3-b]pyrazine]",
